System: MV-4-11 cells
Test: Gene expression microarray analysis (Affymetrix PrimeView) and GSEA
Assay type: cell-based, human
Design: RFU PODN (11730768_x_at) / Fold change /veh PODN (11730768_x_at) / RFU LINC00158 (11744669_a_at) / Fold change /veh LINC00158 (11744669_a_at) / RFU DUSP10 (11751237_a_at) / Fold change /veh DUSP10 (11751237_a_at) / RFU ID3 (11757404_x_at) / Fold change /veh ID3 (11757404_x_at) / RFU PLEKHG5 (11737974_s_at) / Fold change /veh PLEKHG5 (11737974_s_at) / RFU LRRC4B (11730491_at) / Fold change /veh LRRC4B (11730491_at) / RFU GIMAP4 (11747438_a_at) / Fold change /veh GIMAP4 (11747438_a_at) / RFU KRT8 (11758183_x_at) / Fold change /veh KRT8 (11758183_x_at) / RFU CNN1 (11734310_a_at) / Fold change /veh CNN1 (11734310_a_at) / RFU VPS37D (11726825_at) / Fold change /veh VPS37D (11726825_at) / RFU C10orf10 (11716522_x_at) / Fold change /veh C10orf10 (11716522_x_at) / RFU KIR2DL2 /// KIR2DL4 /// KIR2DL5A /// KIR2DL5B /// KIR2DS1 /// KIR2DS2 /// KIR2DS3 /// KIR2DS4 /// KIR3DL3 /// KIR3DL3 /// KIR3DS1 (11738374_at) / Fold change /veh KIR2DL2 /// KIR2DL4 /// KIR2DL5A /// KIR2DL5B /// KIR2DS1 /// KIR2DS2 /// KIR2DS3 /// KIR2DS4 /// KIR3DL3 /// KIR3DL3 /// KIR3DS1 (11738374_at) / RFU C1QL1 (11718748_at) / Fold change /veh C1QL1 (11718748_at) / RFU TMPRSS4 (11747572_a_at) / Fold change /veh TMPRSS4 (11747572_a_at) / RFU HAMP (11756126_x_at) / Fold change /veh HAMP (11756126_x_at) / RFU RNFT2 (11725882_a_at) / Fold change /veh RNFT2 (11725882_a_at) / RFU NR4A2 (11747474_a_at) / Fold change /veh NR4A2 (11747474_a_at) / RFU ABCC12 (11746883_a_at) / Fold change /veh ABCC12 (11746883_a_at) / RFU TMEM136 (11760407_x_at) / Fold change /veh TMEM136 (11760407_x_at) / RFU CLDN22 /// WWC2 (11732394_at) / Fold change /veh CLDN22 /// WWC2 (11732394_at) / RFU HLA-DPB1 (11760878_x_at) / Fold change /veh HLA-DPB1 (11760878_x_at) / RFU SPINT1 (11716480_a_at) / Fold change /veh SPINT1 (11716480_a_at) / RFU GAP43 (11754022_s_at) / Fold change /veh GAP43 (11754022_s_at) / RFU A4GNT (11735810_at) / Fold change /veh A4GNT (11735810_at) / RFU PRB3 (11715151_x_at) / Fold change /veh PRB3 (11715151_x_at) / RFU TUBB4B (11761932_at) / Fold change /veh TUBB4B (11761932_at) / RFU CAPN14 (11732068_a_at) / Fold change /veh CAPN14 (11732068_a_at) / RFU TMCC2 (11721928_a_at) / Fold change /veh TMCC2 (11721928_a_at) / RFU IRGQ (11745062_a_at) / Fold change /veh IRGQ (11745062_a_at) / RFU FAM174B (11720279_a_at) / Fold change /veh FAM174B (11720279_a_at) / RFU TMPRSS4 (11748680_a_at) / Fold change /veh TMPRSS4 (11748680_a_at) / RFU FAM212B (11763350_a_at) / Fold change /veh FAM212B (11763350_a_at) / RFU PLEKHG5 (11743358_a_at) / Fold change /veh PLEKHG5 (11743358_a_at) / RFU ZSCAN30 (11745921_a_at) / Fold change /veh ZSCAN30 (11745921_a_at) / RFU CMKLR1 (11741424_a_at) / Fold change /veh CMKLR1 (11741424_a_at) / RFU LOC101060620 /// MAPK8IP1 (11723275_at) / Fold change /veh LOC101060620 /// MAPK8IP1 (11723275_at) / RFU SPTSSB (11747773_x_at) / Fold change /veh SPTSSB (11747773_x_at) / RFU PRSS12 (11739890_at) / Fold change /veh PRSS12 (11739890_at) / RFU BIN1 (11741810_x_at) / Fold change /veh BIN1 (11741810_x_at) / RFU WNT11 (11732464_a_at) / Fold change /veh WNT11 (11732464_a_at) / RFU C10orf10 (11716521_a_at) / Fold change /veh C10orf10 (11716521_a_at) / RFU C5orf56 (11738089_at) / Fold change /veh C5orf56 (11738089_at) / RFU CYB561 (11721691_x_at) / Fold change /veh CYB561 (11721691_x_at) / RFU ANKRD19P (11752326_a_at) / Fold change /veh ANKRD19P (11752326_a_at) / RFU OR2T12 /// OR2T33 /// OR2T8 (11738714_s_at) / Fold change /veh OR2T12 /// OR2T33 /// OR2T8 (11738714_s_at) / RFU VCAN (11748164_a_at) / Fold change /veh VCAN (11748164_a_at) / RFU JSRP1 (11732532_at) / Fold change /veh JSRP1 (11732532_at) / RFU KRTAP10-11 (11738290_x_at) / Fold change /veh KRTAP10-11 (11738290_x_at) / RFU MYO3A (11730013_a_at) / Fold change /veh MYO3A (11730013_a_at) / RFU EBF3 (11725865_a_at) / Fold change /veh EBF3 (11725865_a_at) / RFU CAMK2N1 (11719241_x_at) / Fold change /veh CAMK2N1 (11719241_x_at) / RFU C5orf56 (11738088_a_at) / Fold change /veh C5orf56 (11738088_a_at) / RFU OLFML3 (11715873_a_at) / Fold change /veh OLFML3 (11715873_a_at) / RFU LOC100653217 /// NTM (11731650_a_at) / Fold change /veh LOC100653217 /// NTM (11731650_a_at) / RFU MAPK11 (11762145_a_at) / Fold change /veh MAPK11 (11762145_a_at) / RFU FIZ1 (11724087_x_at) / Fold change /veh FIZ1 (11724087_x_at) / RFU OASL (11726364_x_at) / Fold change /veh OASL (11726364_x_at) / RFU SOX15 (11748057_x_at) / Fold change /veh SOX15 (11748057_x_at) / RFU CD79A (11719716_a_at) / Fold change /veh CD79A (11719716_a_at) / RFU HIST1H1D (11736915_at) / Fold change /veh HIST1H1D (11736915_at) / RFU CASKIN2 (11723855_a_at) / Fold change /veh CASKIN2 (11723855_a_at) / RFU LOC730098 (11760151_x_at) / Fold change /veh LOC730098 (11760151_x_at) / RFU OR4N2 (11742367_at) / Fold change /veh OR4N2 (11742367_at) / RFU PRRT2 (11749266_a_at) / Fold change /veh PRRT2 (11749266_a_at) / RFU SNX32 (11753110_a_at) / Fold change /veh SNX32 (11753110_a_at) / RFU CDHR5 (11726645_a_at) / Fold change /veh CDHR5 (11726645_a_at) / RFU RCAN1 (11760418_a_at) / Fold change /veh RCAN1 (11760418_a_at) / RFU FAM167A (11723789_a_at) / Fold change /veh FAM167A (11723789_a_at) / RFU FAM26E (11764081_at) / Fold change /veh FAM26E (11764081_at) / RFU ISYNA1 (11749810_s_at) / Fold change /veh ISYNA1 (11749810_s_at) / RFU ACY1 (11761880_at) / Fold change /veh ACY1 (11761880_at) / RFU 11764098_at / Fold change /veh 11764098_at / RFU SAMD14 (11745864_x_at) / Fold change /veh SAMD14 (11745864_x_at) / RFU NPB (11741838_a_at) / Fold change /veh NPB (11741838_a_at) / RFU TMPRSS6 (11731388_a_at) / Fold change /veh TMPRSS6 (11731388_a_at) / RFU KRTAP10-2 (11738614_at) / Fold change /veh KRTAP10-2 (11738614_at) / RFU ARHGAP8 /// PRR5-ARHGAP8 (11727945_x_at) / Fold change /veh ARHGAP8 /// PRR5-ARHGAP8 (11727945_x_at) / RFU KRTAP5-7 /// NADSYN1 (11734609_at) / Fold change /veh KRTAP5-7 /// NADSYN1 (11734609_at) / RFU RASL12 (11751679_a_at) / Fold change /veh RASL12 (11751679_a_at) / RFU CDKN2B (11736163_a_at) / Fold change /veh CDKN2B (11736163_a_at) / RFU PRF1 (11729649_at) / Fold change /veh PRF1 (11729649_at) / RFU, ZNF638 /// ZNF638-IT1 / Fold change vs veh, ZNF638 /// ZNF638-IT1 / RFU, PANK3 / Fold change vs veh, PANK3 / RFU, SH3YL1 / Fold change vs veh, SH3YL1 / RFU, ZEB2 / Fold change vs veh, ZEB2 / RFU, NRIP1 / Fold change vs veh, NRIP1 / RFU, PTTG1IP / Fold change vs veh, PTTG1IP / RFU, CAPN2 / Fold change vs veh, CAPN2 / RFU, MED14 / Fold change vs veh, MED14 / RFU, SNORA58 / Fold change vs veh, SNORA58 / RFU, C1orf63 / Fold change vs veh, C1orf63 / RFU, LRRFIP1 / Fold change vs veh, LRRFIP1 / RFU, NDUFAF7 / Fold change vs veh, NDUFAF7 / RFU, SLC12A2 / Fold change vs veh, SLC12A2 / RFU, IBTK / Fold change vs veh, IBTK / RFU, ESF1 / Fold change vs veh, ESF1 / Fold change vs veh, TMEM50B / RFU, TAOK1 / Fold change vs veh, TAOK1 / RFU, ACBD3 / Fold change vs veh, ACBD3 / RFU, TMA16 / Fold change vs veh, TMA16 / RFU, RWDD3 / Fold change vs veh, RWDD3 / RFU, BCAT1 / Fold change vs veh, BCAT1 / RFU, EDEM3 / Fold change vs veh, EDEM3 / RFU, TMEM33 / Fold change vs veh, TMEM33 / RFU, WDR75 / Fold change vs veh, WDR75 / RFU, AHCTF1 / Fold change vs veh, AHCTF1 / RFU, TFRC / Fold change vs veh, TFRC / RFU, ZDHHC17 / Fold change vs veh, ZDHHC17 / RFU, NOM1 / Fold change vs veh, NOM1 / RFU, ARL8B / Fold change vs veh, ARL8B / RFU, ZBTB11 / Fold change vs veh, ZBTB11 / RFU, TAMM41 / Fold change vs veh, TAMM41 / RFU, KIAA1704 /// LOC100996395 / Fold change vs veh, KIAA1704 /// LOC100996395 / RFU, ING1 / Fold change vs veh, ING1 / RFU, TRMT61B / Fold change vs veh, TRMT61B / RFU, FUBP3 / Fold change vs veh, FUBP3 / RFU, TP53 / Fold change vs veh, TP53 / RFU, TNKS2 / Fold change vs veh, TNKS2 / RFU, ZFP14 / Fold change vs veh, ZFP14 / RFU, ACTR2 / Fold change vs veh, ACTR2 / RFU, PPP3R1 / Fold change vs veh, PPP3R1 / RFU, PIK3R1 / Fold change vs veh, PIK3R1 / RFU, HNRNPA1 / Fold change vs veh, HNRNPA1 / RFU, RNF170 / Fold change vs veh, RNF170 / RFU, ZNF28 / Fold change vs veh, ZNF28 / RFU, RNGTT / Fold change vs veh, RNGTT / RFU, OGT / Fold change vs veh, OGT / RFU, BRD1 / Fold change vs veh, BRD1 / RFU, MARS / Fold change vs veh, MARS / RFU, ZNF655 / Fold change vs veh, ZNF655 / RFU, FAHD1 / Fold change vs veh, FAHD1 / RFU, BDP1 / Fold change vs veh, BDP1 / RFU, LRRCC1 / Fold change vs veh, LRRCC1 / RFU, ARID1A / Fold change vs veh, ARID1A / RFU, ZNF146 / Fold change vs veh, ZNF146 / RFU, ZNF330 / Fold change vs veh, ZNF330 / RFU, GPN3 / Fold change vs veh, GPN3 / RFU, C9orf123 / Fold change vs veh, C9orf123 / RFU, N4BP2L2 / Fold change vs veh, N4BP2L2 / RFU, ARFIP1 / Fold change vs veh, ARFIP1 / RFU, FAM179B / Fold change vs veh, FAM179B / RFU, BCL10 / Fold change vs veh, BCL10 / RFU, UHRF1BP1L / Fold change vs veh, UHRF1BP1L / RFU, BET1 / Fold change vs veh, BET1 / RFU, CNOT2 / Fold change vs veh, CNOT2 / RFU, ZNF268 / Fold change vs veh, ZNF268 / Fold change vs veh, ZNF507 / RFU, DGCR2 / Fold change vs veh, DGCR2 / RFU, WDSUB1 / Fold change vs veh, WDSUB1 / Fold change vs veh, HSP90B1 /// MIR3652 / RFU, ADSS / Fold change vs veh, ADSS / RFU, GK / Fold change vs veh, GK / RFU, ZNF148 / Fold change vs veh, ZNF148 / RFU, TAF9 / Fold change vs veh, TAF9 / RFU, SLC1A5 / Fold change vs veh, SLC1A5 / RFU, SLMO2 / Fold change vs veh, SLMO2 / RFU, ABCC4 / Fold change vs veh, ABCC4 / RFU, LOC101060439 /// RAP1B / Fold change vs veh, LOC101060439 /// RAP1B / RFU, RFX7 / Fold change vs veh, RFX7 / RFU, GTPBP10 / Fold change vs veh, GTPBP10 / RFU, CNEP1R1 / Fold change vs veh, CNEP1R1 / RFU, BIVM-ERCC5 /// ERCC5 / Fold change vs veh, BIVM-ERCC5 /// ERCC5 / RFU, ILF3 / Fold change vs veh, ILF3 / RFU 11762660_at / Fold change /veh 11762660_at / RFU VCAN (11757783_s_at) / Fold change /veh VCAN (11757783_s_at) / RFU DDX43 (11728927_at) / Fold change /veh DDX43 (11728927_at) / RFU KRT8 (11758188_x_at) / Fold change /veh KRT8 (11758188_x_at) / RFU NKD1 (11759106_at) / Fold change /veh NKD1 (11759106_at) / RFU SRD5A1 (11742802_a_at) / Fold change /veh SRD5A1 (11742802_a_at) / RFU TPSAB1 /// TPSB2 (11721975_s_at) / Fold change /veh TPSAB1 /// TPSB2 (11721975_s_at) / RFU GSTM3 (11746129_a_at) / Fold change /veh GSTM3 (11746129_a_at) / RFU IL23R (11737362_x_at) / Fold change /veh IL23R (11737362_x_at) / RFU TMEM51 (11727254_a_at) / Fold change /veh TMEM51 (11727254_a_at) / RFU PIWIL2 (11732686_x_at) / Fold change /veh PIWIL2 (11732686_x_at) / RFU ORM1 (11744905_x_at) / Fold change /veh ORM1 (11744905_x_at) / RFU CCDC152 (11743942_at) / Fold change /veh CCDC152 (11743942_at) / RFU ECM1 (11717891_a_at) / Fold change /veh ECM1 (11717891_a_at) / RFU IL23R (11748794_a_at) / Fold change /veh IL23R (11748794_a_at) / RFU TNFAIP8L3 (11732012_x_at) / Fold change /veh TNFAIP8L3 (11732012_x_at) / RFU MBOAT4 (11741988_at) / Fold change /veh MBOAT4 (11741988_at) / RFU 11764193_at / Fold change /veh 11764193_at / RFU TMEM53 (11763286_at) / Fold change /veh TMEM53 (11763286_at) / RFU MAGEB2 (11727129_at) / Fold change /veh MAGEB2 (11727129_at) / RFU TMEM200A (11744735_a_at) / Fold change /veh TMEM200A (11744735_a_at) / RFU CCDC152 (11751479_a_at) / Fold change /veh CCDC152 (11751479_a_at) / RFU FAM211A (11726209_a_at) / Fold change /veh FAM211A (11726209_a_at) / RFU RGS16 (11746705_a_at) / Fold change /veh RGS16 (11746705_a_at) / RFU VCAN (11755009_s_at) / Fold change /veh VCAN (11755009_s_at) / RFU RHOB (11743442_s_at) / Fold change /veh RHOB (11743442_s_at) / RFU RGS16 (11720943_a_at) / Fold change /veh RGS16 (11720943_a_at) / RFU RGS16 (11720944_at) / Fold change /veh RGS16 (11720944_at) / RFU, VPS4B / Fold change vs veh, VPS4B / RFU, CREB1 / Fold change vs veh, CREB1 / RFU, DNAJC13 / Fold change vs veh, DNAJC13 / RFU, GNAQ / Fold change vs veh, GNAQ / RFU, CDK5R1 / Fold change vs veh, CDK5R1 / RFU, ZRANB3 / Fold change vs veh, ZRANB3 / RFU, CUL4A / Fold change vs veh, CUL4A / RFU, CCNY / Fold change vs veh, CCNY / RFU, UFL1 / Fold change vs veh, UFL1 / RFU, COG3 / Fold change vs veh, COG3 / RFU, DIAPH2 / Fold change vs veh, DIAPH2 / RFU, SKA2 / Fold change vs veh, SKA2 / RFU, AFF3 / Fold change vs veh, AFF3 / RFU, LMF1 / Fold change vs veh, LMF1 / RFU, IPO11 / Fold change vs veh, IPO11 / RFU, DFFB / Fold change vs veh, DFFB / RFU, FOXP1 / Fold change vs veh, FOXP1 / RFU, CARD8 / Fold change vs veh, CARD8 / RFU, STRN3 / Fold change vs veh, STRN3 / RFU, ADK / Fold change vs veh, ADK / RFU, RASSF2 / Fold change vs veh, RASSF2 / RFU, WIPF1 / Fold change vs veh, WIPF1 / RFU, LARP1B / Fold change vs veh, LARP1B / RFU, RASA1 / Fold change vs veh, RASA1 / RFU, RB1 / Fold change vs veh, RB1 / RFU, PPFIA1 / Fold change vs veh, PPFIA1 / RFU, MAT2A / Fold change vs veh, MAT2A / RFU, CCT5 / Fold change vs veh, CCT5 / RFU, WDR92 / Fold change vs veh, WDR92 / RFU, CUX1 / Fold change vs veh, CUX1 / RFU, TTC7A / Fold change vs veh, TTC7A / RFU, TMEM135 / Fold change vs veh, TMEM135 / RFU, DEPTOR / Fold change vs veh, DEPTOR / RFU, CPM / Fold change vs veh, CPM / RFU, DNAJB6 / Fold change vs veh, DNAJB6 / RFU, CACNA2D3 / Fold change vs veh, CACNA2D3 / RFU, DTX4 / Fold change vs veh, DTX4 / RFU, TFCP2 / Fold change vs veh, TFCP2 / RFU, GMCL1 /// GMCL1P1 / Fold change vs veh, GMCL1 /// GMCL1P1 / RFU, AEBP2 / Fold change vs veh, AEBP2 / RFU, SNHG1 /// SNORD22 /// SNORD25 /// SNORD26 /// SNORD27 /// SNORD28 /// SNORD29 /// SNORD31 / Fold change vs veh, SNHG1 /// SNORD22 /// SNORD25 /// SNORD26 /// SNORD27 /// SNORD28 /// SNORD29 /// SNORD31 / Fold change (Aza/veh), C12orf56 (ProbeSet 11735607_a_at) / Fold change (ACY-1035/veh), C12orf56 (ProbeSet 11735607_a_at) / Fold change (Aza/veh), FGFR1OP (ProbeSet 11751329_s_at) / Fold change (ACY-1035/veh), FGFR1OP (ProbeSet 11751329_s_at) / Fold change (Aza/veh), VPS36 (ProbeSet 11739960_a_at) / Fold change (ACY-1035/veh), VPS36 (ProbeSet 11739960_a_at) / RFU SYPL1 (11715823_x_at) / Fold change /veh SYPL1 (11715823_x_at) / RFU IGFBP7 (11715501_s_at) / Fold change /veh IGFBP7 (11715501_s_at) / RFU REEP3 (11722064_at) / Fold change /veh REEP3 (11722064_at) / RFU IGLL1 (11728026_x_at) / Fold change /veh IGLL1 (11728026_x_at): dose or concentration left out as unconfirmed
Conditions: MV-4-11 cells, 48 hours

Nc1ccc(-c2cccs2)cc1NC(=O)c1ccc2c(c1)cc(C1CC1)n2CCN1CCOCC1 [ACY-1035]
RFU CASKIN2 (11723855_a_at): 29.44 RFU

— publication PMC5218480 (PLoS ONE, 2017)
